Legend:
Sarcoma 180 [1] = assay: Antitumor activity test using Sarcoma 180 in ICR-JCL mice; type: in vivo; settings: intraperitoneal, once a day for 10 days, fifth week
Protocol: (1) An antitumor activity test using Sarcoma 180 in ICR-JCL mice
(§1) Starting 24 hours after the transplantation, the glucanpolyol of this invention was intraperitoneally administered once a day for 10 days. In the fifth week, the tumor was enucleated and its weight was compared with that in non-treated groups. The tumor inhibition ratio was calculated, and the number of tumors which completely regressed was observed.
(§2) The tumor inhibition ratio was calculated in accordance with the following equation. [formula] wherein C is the average weight of tumor in non-treated groups (10 mice per group),
(§3) T is the average weight of tumor in treated groups (10 mice per group).

Ehrlich Carcinoma = assay: Antitumor activity test using Ehrlich Carcinoma in ICR-JCL mice; type: in vivo; settings: intraperitoneal, once a day for 10 days, fifth week
Protocol: as §1, §2, §3
(2) An antitumor activity test using Ehrlich Carcinoma in ICR-JCL mice

Meth-A = assay: Antitumor activity test using Meth-A in Balb/c mice; type: in vivo; settings: intraperitoneal, once a day for 10 days, fifth week
Protocol: as §1, §2, §3
(3) An antitumor activity test using Meth-A in Balb/c mice

Sarcoma 180 [2] = assay: Antitumor activity test using Sarcoma 180 in C3H/He mice; type: in vivo; settings: intraperitoneal, once a day for 10 days, fifth week
Protocol: as §1, §2, §3
(4) An antitumor activity test using Sarcoma 180 in C3H/He mice

Sarcoma 180 [3] = assay: Antitumor activity test using Sarcoma 180 in Balb/c mice; type: in vivo; settings: 1 mg/kg/day, intraperitoneal, once a day for 10 days, fifth week
Protocol: as §1, with “The ascites cells of Sarcoma 180 were inoculated peritoneally in ICR-JCL mice having a body weight of about 23 g. […] Starting” for “Starting”
as §2, §3
(5) An antitumor activity test using Sarcoma 180 in Balb/c mice
Six million Sarcoma 180 cells were transplanted into the subcutaneous portion of the right inguinal part of the Balb/c mice having a body weight of about 23 g, and then, the same operation as in (1 ) above was performed.

Sarcoma 180 [4] = assay: Antitumor activity test using Sarcoma 180 in C57 BL/6 mice; type: in vivo; settings: 1 mg/kg/day, intraperitoneal, once a day for 10 days, fifth week
Protocol: as §1, with “The ascites cells of Sarcoma 180 were inoculated peritoneally in ICR-JCL mice having a body weight of about 23 g. […] Starting” for “Starting”
as §2, §3
(6) An antitumor activity test using Sarcoma 180 in C57 BL/6 mice
Six million Sarcoma 180 cells were transplanted into the subcutaneous portion of the right inguinal part of the C57 BL/6 mice having a body weight of about 20 g, and then the same operation as in (1) above was performed.

Sarcoma 180 [5] = assay: Antitumor activity test using Sarcoma 180 in ddY mice; type: in vivo; settings: 1 mg/kg/day, intraperitoneal, once a day for 10 days, fifth week
Protocol: as §1, with “The ascites cells of Sarcoma 180 were inoculated peritoneally in ICR-JCL mice having a body weight of about 23 g. […] Starting” for “Starting”
as §2, §3
(7) An antitumor activity test using Sarcoma 180 in ddY mice
Six million Sarcoma 180 cells were transplanted into the subcutaneous portion of the right inguinal part of ddY mice having a body weight of about 23 g, and then, the same operation as in (1) above was performed.

CCM-adenocarcinoma = assay: Antitumor activity test using CCM-adenocarcinoma in ICR-JCL mice; type: in vivo; settings: 1 mg/kg/day, intraperitoneal, once a day for 10 days, fifth week
Protocol: as §1, with “The ascites cells of Sarcoma 180 were inoculated peritoneally in ICR-JCL mice having a body weight of about 23 g. […] Starting” for “Starting”
as §2, §3
(8) An antitumor activity test using CCM-adenocarcinoma in ICR-JCL mice
Six million CCM-adenocarcinoma cells were transplanted into the subcutaneous portion of the right inguinal part of ICR-JCL mice having a body weight of about 23 g, and then the same operation as in (1) above was performed.

[6] = tested on: NTF-reticulum cell sarcoma; assay: Antitumor activity test using NTF-reticulum cell sarcoma in ICR-JCL mice; type: in vivo; settings: 1 mg/kg/day, intraperitoneal, once a day for 10 days, fifth week
Protocol: as §1, with “The ascites cells of Sarcoma 180 were inoculated peritoneally in ICR-JCL mice having a body weight of about 23 g. […] Starting” for “Starting”
as §2, §3
(9) An antitumor activity test using NTF-reticulum cell sarcoma in ICR-JCL mice
Six million NFT-reticulum cell sarcoma cells were transplanted into the subcutaneous portion of the right inguinal part of ICR-JCL mice having a body weight of about 23 g, and then, the same operation as in (1) above was performed.

[7] = Intrinsic viscosity [.eta.]; type: physicochemical; settings: 25° C., aqueous solution; concentration in g/100 ml
Protocol: The intrinsic viscosity, as used in the present invention, is [.eta.] defined by the following equation. [formula] wherein .eta.sp =(.eta.-.eta.o)/.eta.o =/.eta.o -1 in which .eta. is the viscosity (at 25° C. in aqueous solution) of the solution and .eta.o is the viscosity of the solvent; and C is the concentration in g/100 ml.

ICR-JCL mice = assay: Toxicity (LD50) on ICR-JCL mice; type: in vivo; settings: ICR-JCL mice
Source text: The toxicity of the β-1,3-glucanpolyol of this invention is very low, and the LD50 values of the products obtained in Examples 1, 4 and 5, for example, on ICR-JCL mice are as shown in Table 10.

In the case of β-1,3-glucanpolyol [Example 2], the “Average weight of tumor” value (Sarcoma 180 [1]; 5 mg/kg/day) is reported as 0.30 g, the Complete regression (Sarcoma 180 [1]; 5 mg/kg/day) is reported as 8/10 and the Tumor inhibition ratio (Sarcoma 180 [1]; 5 mg/kg/day) is reported as 97.3%. The “Average weight of tumor” value (Ehrlich Carcinoma; 1 mg/kg/day) was 1.27 g, the Complete regression (Ehrlich Carcinoma; 1 mg/kg/day) was 6/10 and the Tumor inhibition ratio (Ehrlich Carcinoma; 1 mg/kg/day) was 91.5%. The “Average weight of tumor” value (Ehrlich Carcinoma; 5 mg/kg/day) was 0.83 g, the Complete regression (Ehrlich Carcinoma; 5 mg/kg/day) was 7/10 and the Tumor inhibition ratio (Ehrlich Carcinoma; 5 mg/kg/day) was 94.4%. For the same substance, the “Average weight of tumor” value (Meth-A; 5 mg/kg/day) was 6.73 g, the Complete regression (Meth-A; 5 mg/kg/day) was 0/10 and the Tumor inhibition ratio (Meth-A; 5 mg/kg/day) was 49.6%. For the same substance, the “Average weight of tumor” value (Sarcoma 180 [2]; 5 mg/kg/day) was 3.50 g, the Complete regression (Sarcoma 180 [2]; 5 mg/kg/day) was 4/10 and the Tumor inhibition ratio (Sarcoma 180 [2]; 5 mg/kg/day) was 72.9%. For the same substance, the “Average weight of tumor” value (Sarcoma 180 [3]) was 0.09 g, the Complete regression (Sarcoma 180 [3]) was 8/10 and the Tumor inhibition ratio (Sarcoma 180 [3]) was 97.5%. For the same substance, the “Average weight of tumor” value (Sarcoma 180 [4]) was 0.21 g, the Complete regression (Sarcoma 180 [4]) was 8/10 and the Tumor inhibition ratio (Sarcoma 180 [4]) was 94.1%. The “Average weight of tumor” value (Sarcoma 180 [5]) was 1.08 g, the Complete regression (Sarcoma 180 [5]) was 7/10 and the Tumor inhibition ratio (Sarcoma 180 [5]) was 90.3%. The “Average weight of tumor” value (CCM-adenocarcinoma) was 0.61 g, the Complete regression (CCM-adenocarcinoma) was 8/10 and the Tumor inhibition ratio (CCM-adenocarcinoma) was 95.0%. For the same substance, the “Average weight of tumor” value [6] was 0.37 g, the Complete regression [6] was 8/10 and the Tumor inhibition ratio [6] was 93.6%. For the same substance, the Intrinsic viscosity [.eta.] [7] was 7.25 dL/g.

For β-1,3-glucanpolyol [Example 1], the “Average weight of tumor” value (Sarcoma 180 [1]; 1 mg/kg/day) was 0.28 g, the Complete regression (Sarcoma 180 [1]; 1 mg/kg/day) was 9/10 and the Tumor inhibition ratio (Sarcoma 180 [1]; 1 mg/kg/day) was 97.5%. The “Average weight of tumor” value (Sarcoma 180 [1]; 5 mg/kg/day) was 0 g, the Complete regression (Sarcoma 180 [1]; 5 mg/kg/day) was 10/10 and the Tumor inhibition ratio (Sarcoma 180 [1]; 5 mg/kg/day) was 100%. The “Average weight of tumor” value (Sarcoma 180 [1]; 10 mg/kg/day) was 0.17 g, the Complete regression (Sarcoma 180 [1]; 10 mg/kg/day) was 9/10 and the Tumor inhibition ratio (Sarcoma 180 [1]; 10 mg/kg/day) was 98.5%. For the same substance, the “Average weight of tumor” value (Ehrlich Carcinoma; 1 mg/kg/day) was 0 g, the Complete regression (Ehrlich Carcinoma; 1 mg/kg/day) was 10/10 and the Tumor inhibition ratio (Ehrlich Carcinoma; 1 mg/kg/day) was 100%. The “Average weight of tumor” value (Ehrlich Carcinoma; 5 mg/kg/day) was 0 g, the Complete regression (Ehrlich Carcinoma; 5 mg/kg/day) was 10/10 and the Tumor inhibition ratio (Ehrlich Carcinoma; 5 mg/kg/day) was 100%. The “Average weight of tumor” value (Ehrlich Carcinoma; 20 mg/kg/day) was 0.31 g, the Complete regression (Ehrlich Carcinoma; 20 mg/kg/day) was 7/10 and the Tumor inhibition ratio (Ehrlich Carcinoma; 20 mg/kg/day) was 97.9%. The “Average weight of tumor” value (Meth-A; 1 mg/kg/day) was 7.74 g, the Complete regression (Meth-A; 1 mg/kg/day) was 0/10 and the Tumor inhibition ratio (Meth-A; 1 mg/kg/day) was 42.1%. The “Average weight of tumor” value (Meth-A; 5 mg/kg/day) was 5.57 g, the Complete regression (Meth-A; 5 mg/kg/day) was 0/10 and the Tumor inhibition ratio (Meth-A; 5 mg/kg/day) was 58.3%. The “Average weight of tumor” value (Meth-A; 20 mg/kg/day) was 9.25 g, the Complete regression (Meth-A; 20 mg/kg/day) was 0/10 and the Tumor inhibition ratio (Meth-A; 20 mg/kg/day) was 30.8%. For the same substance, the “Average weight of tumor” value (Sarcoma 180 [2]; 1 mg/kg/day) was 5.14 g, the Complete regression (Sarcoma 180 [2]; 1 mg/kg/day) was 0/10 and the Tumor inhibition ratio (Sarcoma 180 [2]; 1 mg/kg/day) was 60.2%. For the same substance, the “Average weight of tumor” value (Sarcoma 180 [2]; 5 mg/kg/day) was 2.14 g, the Complete regression (Sarcoma 180 [2]; 5 mg/kg/day) was 6/10 and the Tumor inhibition ratio (Sarcoma 180 [2]; 5 mg/kg/day) was 83.4%. For the same substance, the “Average weight of tumor” value (Sarcoma 180 [2]; 20 mg/kg/day) was 4.62 g, the Complete regression (Sarcoma 180 [2]; 20 mg/kg/day) was 1/10 and the Tumor inhibition ratio (Sarcoma 180 [2]; 20 mg/kg/day) was 64.2%. The “Average weight of tumor” value (Sarcoma 180 [3]) was 0.08 g, the Complete regression (Sarcoma 180 [3]) was 9/10 and the Tumor inhibition ratio (Sarcoma 180 [3]) was 97.8%. The “Average weight of tumor” value (Sarcoma 180 [4]) was 0.15 g, the Complete regression (Sarcoma 180 [4]) was 8/10 and the Tumor inhibition ratio (Sarcoma 180 [4]) was 95.8%. For the same substance, the “Average weight of tumor” value (Sarcoma 180 [5]) was 0.39 g, the Complete regression (Sarcoma 180 [5]) was 7/10 and the Tumor inhibition ratio (Sarcoma 180 [5]) was 96.5%. For the same substance, the “Average weight of tumor” value (CCM-adenocarcinoma) was 0.52 g, the Complete regression (CCM-adenocarcinoma) was 7/10 and the Tumor inhibition ratio (CCM-adenocarcinoma) was 95.7%. The “Average weight of tumor” value [6] was 0.51 g, the Complete regression [6] was 8/10 and the Tumor inhibition ratio [6] was 91.1%. The “LD50 Intraperitoneal administration” value (ICR-JCL mice; intraperitoneal) was “above 2 g/kg”, the “LD50 Intravenous administration” value (ICR-JCL mice; intravenous) was “above 0.5 g/kg” and the “LD50 Oral administration” value (ICR-JCL mice; oral) was “above 20 g/kg”. It also gave an Intrinsic viscosity [.eta.] [7] of 6.21 dL/g.

Source: patent publication US4398023A, “β-1,3-Glucanpolyol, process for preparation thereof, and utilization thereof” (Meito Sangyo Kabushiki Kaisha, priority 1979, dated 1983)
